Source: ChEMBL document CHEMBL1201862, “PubChem BioAssay data set” (2004)
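The compound was tested at five concentrations on cells cultured in 96-well plates, with a 48-hour exposure period. Here, GI50 denotes the concentration required for 50% inhibition of growth.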 Active and inactive are the calls of the source. No stated cut-off is given here; in the data, active = GI50 up to about 1.1 µM and inactive = higher.

Legend:
Experiment in all cases: NCI tumour cell line growth inhibition, 48 h
DLD-1 = tested on: DLD-1
DMS-273 = tested on: DMS-273
HOP-18 = tested on: HOP-18
KM-20L2 = tested on: KM-20L2
M19-MEL = tested on: M19-MEL
RXF 631 = tested on: RXF 631
SNB-78 = tested on: SNB-78
XF498 = tested on: XF498

Measured: GI50

CN(C(=O)C12C3C4C1C1C2C3C41I)C(C)(C)C (centres undefined)
inactive: DLD-1 > 100 µM | DMS-273 47 µM | HOP-18 > 100 µM | KM-20L2 > 89.3 µM | M19-MEL > 100 µM | RXF 631 53.2 µM | SNB-78 > 100 µM | XF498 > 61.9 µM

N#CC(C(=O)/C(=N/NC(=O)c1ccccc1O)C(C#N)c1ccccc1)c1ccccc1 (centres undefined)
inactive: DLD-1 > 100 µM | DMS-273 > 100 µM | HOP-18 > 100 µM | KM-20L2 > 100 µM | M19-MEL > 100 µM | RXF 631 > 100 µM | SNB-78 > 100 µM | XF498 > 100 µM

O=c1[nH]cnc2c(COCCO)c[nH]c12
inactive: DLD-1 > 100 µM | DMS-273 > 100 µM | HOP-18 > 100 µM | KM-20L2 > 100 µM | M19-MEL > 100 µM | RXF 631 > 100 µM | SNB-78 > 100 µM | XF498 > 100 µM
